From ChEMBL document CHEMBL1201862, “PubChem BioAssay data set” (2004) come the findings set out here.

Test in all cases: growth of human tumour cells (NCI), 48 h
Assay [1] relates to ACHN.
In assay [2] the test system is BT-549.
Assay [3] deals with HCT-116.
Assay [4] relates to K562.
For assay [5], the system named is LOX IMVI.
Assay [6] concerns MDA-MB-435.
Assay [7] relates to Malme-3M.
In assay [8] the test system is NCI-H522.
For assay [9], the system named is OVCAR-4.
In assay [10] the test system is RPMI-8226.
Assay [11] deals with RXF 393.
The subject of assay [12] is SF-295.
The test system of assay [13] is SK-MEL-28.
Assay [14] concerns SNB-75.
In assay [15] the test system is T47D.
For assay [16], the system named is TK-10.
Assay [17] relates to U-251.
Assay [18] deals with UACC-257.
The test system of assay [19] is UO-31.

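Results reflect a 48-hour exposure of cells in 96-well plates to compound at five concentrations. GI50 marks 50% less growth.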 The source made the active and inactive calls. Rule as the data show it: active = GI50 up to about 1.1 µM and inactive = higher. Bounds are passed on as bounds.

As to `N=c1oc2ccc([N+](=O)[O-])cc2cc1C(=O)NCc1ccccc1`, the GI50 was 16.7 µM (inactive) in assay [1]; 14 µM (inactive) in [2]; 16.3 µM (inactive) in [3]; 40 µM (inactive) in assay [4]; 17.7 µM (inactive) in [5]; 23.1 µM (inactive) in assay [6]. In addition, the GI50 in assay [7] is 13.5 µM (inactive); in assay [8], 12.8 µM (inactive); in assay [9], 24.6 µM (inactive); in assay [10], 38.7 µM (inactive); in assay [11], 14.7 µM (inactive); in assay [12], 36.4 µM (inactive). The GI50 in assay [13] is 20.3 µM (inactive); in assay [14], 11.5 µM (inactive); in [15] it was 17.9 µM (inactive); in assay [16] it was 29.2 µM (inactive); in assay [17], 28 µM (inactive); in assay [18] it was 19.8 µM (inactive). Besides, the GI50 in assay [19] is 18 µM (inactive).

Take `O=C(O)c1c2c(cc3c1CC1(Cc4ccccc4C1=O)C3)CCC2` (stereo not given): the GI50 is 57 µM (inactive) in assay [1]; 33 µM (inactive) in assay [2]; 21.6 µM (inactive) in assay [3]; 5.79 µM (inactive) in assay [4]; 23.8 µM (inactive) in assay [5]; 3.69 µM (inactive) in assay [6]. For the same compound, the GI50 in assay [7] is 16.5 µM (inactive); in assay [8], 22.1 µM (inactive); in assay [9], 27.8 µM (inactive); in assay [10], 18.4 µM (inactive); in assay [11] it was 25.8 µM (inactive); in assay [12], 38.6 µM (inactive). In addition, the GI50 is 52 µM (inactive) in assay [13]; 26.5 µM (inactive) in assay [14]; 32.5 µM (inactive) in [15]; > 66.7 µM (inactive) in assay [16]; 29 µM (inactive) in assay [17]; 50 µM (inactive) in [18]. In addition, in assay [19], the GI50 was 38 µM (inactive).

Regarding `COc1ccc(/C=C2\C[C@H]3[C@@H]4CCC5=C[C@@H](N6CCCC6)CC[C@]5(C)[C@H]4CC[C@]3(C)[C@H]2O)cc1`, the GI50 is 3.29 µM (inactive) in assay [1]; 5.85 µM (inactive) in assay [2]; 1.98 µM (inactive) in [3]; 2.16 µM (inactive) in assay [4]; 1.78 µM (inactive) in assay [5]; 1.93 µM (inactive) in [6]. Moreover, the GI50 is 2.61 µM (inactive) in assay [7]; 2.53 µM (inactive) in assay [8]; 3.59 µM (inactive) in assay [9]; 2.97 µM (inactive) in assay [10]; 1.52 µM (inactive) in assay [11]; 2.3 µM (inactive) in assay [12]. In addition, the GI50 in [13] was 1.87 µM (inactive); in assay [14], 4.97 µM (inactive); in [15], 4.56 µM (inactive); in [16], 2.43 µM (inactive); in assay [17], 2.77 µM (inactive); in assay [18], 1.4 µM (inactive). In addition, the GI50 in assay [19] was 1.72 µM (inactive).

Turning to `N#Cc1nc(Sc2cnsn2)c(Sc2cnsn2)nc1C#N`, the GI50 is 7.1 µM (inactive) in assay [1]; 21.4 µM (inactive) in [2]; 6.65 µM (inactive) in [3]; 2.9 µM (inactive) in assay [4]; 17.9 µM (inactive) in assay [5]; 11.5 µM (inactive) in assay [6]. The GI50 is 4.81 µM (inactive) in assay [7]; 3.93 µM (inactive) in assay [8]; 21.7 µM (inactive) in [9]; 3.5 µM (inactive) in [10]; 5.94 µM (inactive) in assay [11]; 16.6 µM (inactive) in assay [12]. The GI50 in [13] is 22.6 µM (inactive); in [14] it was 22.9 µM (inactive); in [15], 6.25 µM (inactive); in assay [16], 5.12 µM (inactive); in assay [17], 29.4 µM (inactive); in [18], 13.6 µM (inactive). Also, the GI50 in [19] was 9.44 µM (inactive).

As for `COc1cc([C@H]2Oc3c(OC)cc(CCCO)cc3[C@@H]2CO)ccc1O` [DIHYDRODEHYDRODICONIFERY ALCOHOL], the GI50 is > 100 µM (inactive) in assay [1]; 94.4 µM (inactive) in assay [2]; > 100 µM (inactive) in assay [3]; > 100 µM (inactive) in [4]; > 100 µM (inactive) in assay [5]; > 100 µM (inactive) in assay [6]. Further, the GI50 in assay [7] was > 100 µM (inactive); in assay [8], 69.2 µM (inactive); in assay [9], 76.4 µM (inactive); in assay [10], 55.1 µM (inactive); in assay [11] it was > 100 µM (inactive); in assay [12], > 100 µM (inactive). Besides, the GI50 in [13] is > 100 µM (inactive); in [14], 44.9 µM (inactive); in assay [15] it was 30.3 µM (inactive); in assay [16], > 100 µM (inactive); in [17], > 100 µM (inactive); in assay [18], 43.4 µM (inactive). Also, the GI50 in [19] is 57.8 µM (inactive).

Consider `C=CCc1cc(-c2n[nH]c(=S)[nH]2)ccc1N/N=N/c1ccc(C(=O)O)cc1`, for which the GI50 is 71.3 µM (inactive) in assay [1]; 27.2 µM (inactive) in [2]; > 100 µM (inactive) in [3]; 49 µM (inactive) in assay [4]; 74.5 µM (inactive) in assay [5]; 44.8 µM (inactive) in assay [6]. In addition, the GI50 is 51.6 µM (inactive) in assay [7]; 34.1 µM (inactive) in assay [8]; 44.7 µM (inactive) in assay [9]; 38.5 µM (inactive) in assay [10]; 89.5 µM (inactive) in assay [11]; 52.4 µM (inactive) in assay [12]. Besides, the GI50 in [13] was > 100 µM (inactive); in [14] it was > 100 µM (inactive); in [15] it was 24 µM (inactive); in [16] it was > 100 µM (inactive); in [17], > 100 µM (inactive); in assay [18], 76.9 µM (inactive). Also, the GI50 in assay [19] was > 100 µM (inactive).

For the compound `CC(C)(C)OC(=O)N/N=C(/N)Cc1ccccc1`, the GI50 in assay [1], in assay [2], in [3], in assay [4], in assay [5] and in assay [6] was > 100 µM (inactive) each time. The GI50 in assay [7], in assay [8], in assay [9], in assay [10], in [11] and in assay [12] was > 100 µM (inactive) throughout. Also, the GI50 in [13], in assay [14], in assay [15], in [16], in assay [17] and in assay [18] was > 100 µM (inactive) throughout. Besides, the GI50 in [19] is > 100 µM (inactive).

Regarding `OCCCc1ccc2c(c1)[C@H](CO)[C@@H](c1ccc(O)cc1)O2`, the GI50 is > 100 µM (inactive) in [1]; 20.4 µM (inactive) in [2]; > 100 µM (inactive) in [3]; > 100 µM (inactive) in assay [4]; > 100 µM (inactive) in assay [5]; 69.3 µM (inactive) in assay [6]. For the same compound, the GI50 is 13.8 µM (inactive) in [7]; > 100 µM (inactive) in assay [8]; 16.8 µM (inactive) in assay [9]; 26 µM (inactive) in assay [10]; > 100 µM (inactive) in [11]; > 100 µM (inactive) in [12]. Moreover, the GI50 in assay [13] was 36.4 µM (inactive); in [14], > 100 µM (inactive); in [15], 39.2 µM (inactive); in [16] it was > 100 µM (inactive); in [17], > 100 µM (inactive); in assay [18], 46 µM (inactive). In [19], the GI50 is 68.2 µM (inactive).

With `CCc1nc(N)nc(N)c1-c1ccc(Cl)cc1` [PYRIMETHAMINE], the GI50 in assay [1] is 5.11 µM (inactive); in assay [2], 25.8 µM (inactive); in [3], 6.14 µM (inactive); in assay [4], 0.542 µM (active); in assay [5] it was 6.19 µM (inactive); in assay [6], 8.36 µM (inactive). The GI50 was 18.2 µM (inactive) in assay [7]; 22.5 µM (inactive) in assay [8]; 41.6 µM (inactive) in assay [9]; 34.6 µM (inactive) in assay [10]; > 76.4 µM (inactive) in [11]; 4.44 µM (inactive) in [12]. Besides, the GI50 was > 66.7 µM (inactive) in assay [13]; 44.9 µM (inactive) in [14]; 32.7 µM (inactive) in [15]; 21.7 µM (inactive) in assay [16]; 9.75 µM (inactive) in assay [17]; 12.5 µM (inactive) in assay [18]. In addition, in assay [19], the GI50 is 16.4 µM (inactive).

As to `CC1(C)N=C(N)N=C(N)N1CCCCc1ccccc1`, the GI50 is 1.48 µM (inactive) in assay [1]; 2.16 µM (inactive) in assay [2]; 0.0364 µM (active) in [3]; < 0.0177 µM (active) in [4]; 0.149 µM (active) in [5]; 0.155 µM (active) in assay [6]. In addition, the GI50 in [7] was 0.282 µM (active); in [8], 0.708 µM (active); in assay [9], 17.3 µM (inactive); in assay [10] it was 2.43 µM (inactive); in assay [11], 0.422 µM (active); in assay [12], 0.145 µM (active). In addition, the GI50 is 8.59 µM (inactive) in assay [13]; 15.4 µM (inactive) in assay [14]; 10.4 µM (inactive) in assay [15]; 1.19 µM (inactive) in assay [16]; 0.209 µM (active) in assay [17]; 1.63 µM (inactive) in assay [18]. In addition, the GI50 in assay [19] was 64.3 µM (inactive).
